≈ marks a conversion by molar mass, not a printed value. Where a SMILES comes first, the peptide text is derived from it. [ ]: non-standard residue; d: D form. Phe(3,4-F2) = N[C@@H](Cc1ccc(F)c(F)c1)C(=O)O; Cha = N[C@@H](CC1CCCCC1)C(=O)O; Aib = CC(C)(N)C(=O)O
Assays:
[1] = target: SARS-CoV-2 RBD binding to immobilized ACE2 (Severe acute respiratory syndrome coronavirus 2, UniProt P0DTC2); assay: biochemical
[2] = Solubility measurement (peptide concentration in saturated solution); settings: sodium-phosphate buffer, pH 7.4, aqueous buffer, thermodynamic from solid
Experimental: Approximately 2 mg of each peptide was added to 500 µl of buffer in 1.5-ml Eppendorf tubes. The tubes were shaken at 25 °C for 2 h on a 900 r.p.m. vortex shaker. The samples were centrifuged at 12,000 r.p.m. for 15 min to remove the precipitate and the supernatant was analyzed by ultraviolet–visible light (UV–vis) spectrometry.

SARS-CoV-2 RBD = SARS-CoV-2 RBD (Severe acute respiratory syndrome coronavirus 2, UniProt P0DTC2); assay: biochemical; type: binding; settings: for Kd: KD (direct binding to RBD); for kon: read-out: ka

## CC[C@H](C)[C@H](NC(=O)[C@H](CC(C)C)NC(=O)[C@H](CC(=O)O)NC(=O)[C@H](CO)NC(=O)[C@@H](NC(=O)[C@H](CCCNC(=N)N)NC(=O)[C@H](CCSC)NC(=O)[C@H](CO)NC(=O)[C@H](C)NC(=O)[C@H](CCC(=O)O)NC(=O)C(C)(C)NC(=O)[C@H](CC(N)=O)NC(=O)[C@@H](C)NC(=O)[C@H](CC(C)C)NC(=O)[C@H](CCC(=O)O)NC(=O)[C@H](CC(=O)O)NC(=O)[C@H](CC(C)C)NC(=O)[C@H](CC(C)C)NC(=O)[C@H](CCCNC(=N)N)NC(=O)[C@H](CCSC)NC(=O)[C@@H](NC(=O)[C@H](CCC(=O)O)NC(=O)[C@H](Cc1ccc(O)cc1)NC(=O)[C@@H](NC(=O)[C@H](CCCCN)NC(=O)[C@H](CCC(N)=O)NC(=O)[C@H](CC(C)C)NC(=O)[C@@H](NC(=O)[C@H](Cc1c[nH]c2ccccc12)NC(=O)[C@H](CCC(=O)O)NC(=O)[C@H](CCCCN)NC(=O)[C@@H](N)CC(=O)O)[C@@H](C)CC)[C@@H](C)CC)[C@@H](C)CC)C(C)C)C(=O)N[C@@H](Cc1ccc(O)cc1)C(=O)N[C@@H](CCC(=O)O)C(=O)N[C@@H](Cc1ccccc1)C(=O)N[C@@H](CCSC)C(=O)N[C@@H](CCCCN)C(=O)N[C@@H](CCCCN)C(N)=O [SIH-4] (H-DKEWILQKIYEIMRLLDEL[dA]N[Aib]EASMRVSDLIYEFMKK-NH2)
[1]
  IC50: 250 to 500 nM
[2]
  solubility thermodynamic at 2 h: 220 µM (≈ 1020 µg/mL)

## CC[C@H](C)[C@H](NC(=O)[C@H](CCC(=O)O)NC(=O)[C@H](CC(=O)O)NC(=O)[C@H](CO)NC(=O)[C@@H](NC(=O)[C@H](CCCNC(=N)N)NC(=O)[C@H](CCSC)NC(=O)[C@H](CO)NC(=O)[C@H](C)NC(=O)[C@H](CCC(=O)O)NC(=O)C(C)(C)NC(=O)[C@H](CC(=O)O)NC(=O)[C@@H](C)NC(=O)[C@H](CC(C)C)NC(=O)[C@H](CCC(=O)O)NC(=O)[C@H](CC(=O)O)NC(=O)[C@H](CC(C)C)NC(=O)[C@H](CC(C)C)NC(=O)[C@H](CCCNC(=N)N)NC(=O)[C@H](CCSC)NC(=O)[C@H](CCC(=O)O)NC(=O)[C@H](CCC(=O)O)NC(=O)[C@H](Cc1ccc(O)cc1)NC(=O)[C@@H](NC(=O)[C@H](CCCCN)NC(=O)[C@H](CCC(N)=O)NC(=O)[C@H](CC(C)C)NC(=O)[C@@H](NC(=O)[C@H](Cc1c[nH]c2ccccc12)NC(=O)[C@H](CCC(=O)O)NC(=O)[C@H](CCCCN)NC(=O)[C@@H](N)CC(=O)O)[C@@H](C)CC)[C@@H](C)CC)C(C)C)C(=O)N[C@@H](Cc1ccc(O)cc1)C(=O)N[C@@H](CCC(=O)O)C(=O)N[C@@H](Cc1ccccc1)C(=O)N[C@@H](CCSC)C(=O)N[C@@H](CCCCN)C(=O)N[C@@H](CCCCN)C(N)=O [SIH-15] (H-DKEWILQKIYEEMRLLDEL[dA]D[Aib]EASMRVSDEIYEFMKK-NH2)
[1]
  IC50: 250 to 500 nM
SARS-CoV-2 RBD
  Kd: 1.7 nM
  kon: 150000 M⁻¹ s⁻¹

## CC[C@H](C)[C@H](NC(=O)[C@H](CC(C)C)NC(=O)[C@H](CC(=O)O)NC(=O)[C@H](CO)NC(=O)[C@@H](NC(=O)[C@H](CCCNC(=N)N)NC(=O)[C@H](CCSC)NC(=O)[C@H](CO)NC(=O)[C@H](C)NC(=O)[C@H](CCC(=O)O)NC(=O)C(C)(C)NC(=O)[C@H](CC(=O)O)NC(=O)[C@@H](C)NC(=O)[C@H](CC(C)C)NC(=O)[C@H](CCC(=O)O)NC(=O)[C@H](CC(=O)O)NC(=O)[C@H](CC(C)C)NC(=O)[C@H](CC(C)C)NC(=O)[C@H](CCCNC(=N)N)NC(=O)[C@H](CCSC)NC(=O)[C@@H](NC(=O)[C@H](CCC(=O)O)NC(=O)[C@H](Cc1ccc(F)c(F)c1)NC(=O)[C@@H](NC(=O)[C@H](CCCCN)NC(=O)[C@H](CCC(N)=O)NC(=O)[C@H](CC(C)C)NC(=O)[C@@H](NC(=O)[C@H](Cc1c[nH]c2ccccc12)NC(=O)[C@H](CCC(=O)O)NC(=O)[C@H](CCCCN)NC(=O)[C@@H](N)CC(=O)O)[C@@H](C)CC)[C@@H](C)CC)[C@@H](C)CC)C(C)C)C(=O)N[C@@H](Cc1ccc(O)cc1)C(=O)N[C@@H](CCC(=O)O)C(=O)N[C@@H](CC1CCCCC1)C(=O)N[C@@H](CCSC)C(=O)N[C@@H](CCCCN)C(=O)N[C@@H](CCCCN)C(N)=O [SIH-13] (H-DKEWILQKI[Phe(3,4-F2)]EIMRLLDEL[dA]D[Aib]EASMRVSDLIYE[Cha]MKK-NH2)
[1]
  IC50: 125 to 250 nM
SARS-CoV-2 RBD
  Kd: 1.6 nM

## CC[C@H](C)[C@H](NC(=O)[C@H](C)NC(=O)[C@H](CC(=O)O)NC(=O)[C@H](CO)NC(=O)[C@@H](NC(=O)[C@H](CCCNC(=N)N)NC(=O)[C@H](CCSC)NC(=O)[C@H](CO)NC(=O)[C@H](C)NC(=O)[C@H](CCC(=O)O)NC(=O)C(C)(C)NC(=O)[C@H](CC(=O)O)NC(=O)[C@@H](C)NC(=O)[C@H](CC(C)C)NC(=O)[C@H](CCC(=O)O)NC(=O)[C@H](CC(=O)O)NC(=O)[C@H](CC(C)C)NC(=O)[C@H](CC(C)C)NC(=O)[C@H](CCCNC(=N)N)NC(=O)[C@H](CCSC)NC(=O)[C@H](C)NC(=O)[C@H](CCC(=O)O)NC(=O)[C@H](Cc1ccc(O)cc1)NC(=O)[C@@H](NC(=O)[C@H](CCCCN)NC(=O)[C@H](CCC(N)=O)NC(=O)[C@H](CC(C)C)NC(=O)[C@@H](NC(=O)[C@H](Cc1c[nH]c2ccccc12)NC(=O)[C@H](CCC(=O)O)NC(=O)[C@H](CCCCN)NC(=O)[C@@H](N)CC(=O)O)[C@@H](C)CC)[C@@H](C)CC)C(C)C)C(=O)N[C@@H](Cc1ccc(O)cc1)C(=O)N[C@@H](CCC(=O)O)C(=O)N[C@@H](Cc1ccccc1)C(=O)N[C@@H](CCSC)C(=O)N[C@@H](CCCCN)C(=O)N[C@@H](CCCCN)C(N)=O [SIH-14] (H-DKEWILQKIYEAMRLLDEL[dA]D[Aib]EASMRVSDAIYEFMKK-NH2)
[1]
  IC50: 250 to 500 nM
SARS-CoV-2 RBD
  Kd: 3 nM
  kon: 90000 M⁻¹ s⁻¹

## CC[C@H](C)[C@H](NC(=O)[C@H](CC(C)C)NC(=O)[C@H](CC(=O)O)NC(=O)[C@H](CO)NC(=O)[C@@H](NC(=O)[C@H](CCCNC(=N)N)NC(=O)[C@H](CCSC)NC(=O)[C@H](CO)NC(=O)[C@H](C)NC(=O)[C@H](CCC(=O)O)NC(=O)[C@H](C)NC(=O)[C@H](Cc1c[nH]cn1)NC(=O)CNC(=O)[C@H](CC(C)C)NC(=O)[C@H](CCC(=O)O)NC(=O)[C@H](CC(=O)O)NC(=O)[C@H](CC(C)C)NC(=O)[C@H](CC(C)C)NC(=O)[C@H](CCCNC(=N)N)NC(=O)[C@H](CCSC)NC(=O)[C@@H](NC(=O)[C@H](CCC(=O)O)NC(=O)[C@H](Cc1ccc(O)cc1)NC(=O)[C@@H](NC(=O)[C@H](CCCCN)NC(=O)[C@H](CCC(N)=O)NC(=O)[C@H](CC(C)C)NC(=O)[C@@H](NC(=O)[C@H](Cc1c[nH]c2ccccc12)NC(=O)[C@H](CCC(=O)O)NC(=O)[C@H](CCCCN)NC(=O)[C@@H](N)CC(=O)O)[C@@H](C)CC)[C@@H](C)CC)[C@@H](C)CC)C(C)C)C(=O)N[C@@H](Cc1ccc(O)cc1)C(=O)N[C@@H](CCC(=O)O)C(=O)N[C@@H](Cc1ccccc1)C(=O)N[C@@H](CCSC)C(=O)N[C@@H](CCCCN)C(=O)N[C@@H](CCCCN)C(N)=O [SIH-1]
[1]
  IC50: 2500 to 5000 nM
[2]
  solubility thermodynamic at 2 h: 17 µM (≈ 78.9 µg/mL)

## CC[C@H](C)[C@H](NC(=O)[C@H](CC(C)C)NC(=O)[C@H](CC(=O)O)NC(=O)[C@H](CO)NC(=O)[C@@H](NC(=O)[C@H](CCCNC(=N)N)NC(=O)[C@H](CCSC)NC(=O)[C@H](CO)NC(=O)[C@H](C)NC(=O)[C@H](CCC(=O)O)NC(=O)C(C)(C)NC(=O)[C@H](CC(=O)O)NC(=O)[C@@H](C)NC(=O)[C@H](CC(C)C)NC(=O)[C@H](CCC(=O)O)NC(=O)[C@H](CC(=O)O)NC(=O)[C@H](CC(C)C)NC(=O)[C@H](CC(C)C)NC(=O)[C@H](CCCNC(=N)N)NC(=O)[C@H](CCSC)NC(=O)[C@@H](NC(=O)[C@H](CCC(=O)O)NC(=O)[C@H](Cc1ccc(F)c(F)c1)NC(=O)[C@@H](NC(=O)[C@H](CCCCN)NC(=O)[C@H](CCC(N)=O)NC(=O)[C@H](CC(C)C)NC(=O)[C@@H](NC(=O)[C@H](Cc1c[nH]c2ccccc12)NC(=O)[C@H](CCC(=O)O)NC(=O)[C@H](CCCCN)NC(=O)[C@@H](N)CC(=O)O)[C@@H](C)CC)[C@@H](C)CC)[C@@H](C)CC)C(C)C)C(=O)N[C@@H](Cc1ccc(O)cc1)C(=O)N[C@@H](CCC(=O)O)C(=O)N[C@@H](Cc1ccccc1)C(=O)N[C@@H](CCSC)C(=O)N[C@@H](CCCCN)C(=O)N[C@@H](CCCCN)C(N)=O [SIH-7] (H-DKEWILQKI[Phe(3,4-F2)]EIMRLLDEL[dA]D[Aib]EASMRVSDLIYEFMKK-NH2)
[1]
  IC50: 125 to 250 nM
SARS-CoV-2 RBD
  Kd: 2.9 nM

## CC[C@H](C)[C@H](NC(=O)[C@H](CC(C)C)NC(=O)[C@H](CC(=O)O)NC(=O)[C@H](CO)NC(=O)[C@@H](NC(=O)[C@H](CCCNC(=N)N)NC(=O)[C@H](CCSC)NC(=O)[C@H](CO)NC(=O)[C@H](C)NC(=O)[C@H](CCC(=O)O)NC(=O)C(C)(C)NC(=O)[C@H](Cc1c[nH]cn1)NC(=O)[C@@H](C)NC(=O)[C@H](CC(C)C)NC(=O)[C@H](CCC(=O)O)NC(=O)[C@H](CC(=O)O)NC(=O)[C@H](CC(C)C)NC(=O)[C@H](CC(C)C)NC(=O)[C@H](CCCNC(=N)N)NC(=O)[C@H](CCSC)NC(=O)[C@@H](NC(=O)[C@H](CCC(=O)O)NC(=O)[C@H](Cc1ccc(O)cc1)NC(=O)[C@@H](NC(=O)[C@H](CCCCN)NC(=O)[C@H](CCC(N)=O)NC(=O)[C@H](CC(C)C)NC(=O)[C@@H](NC(=O)[C@H](Cc1c[nH]c2ccccc12)NC(=O)[C@H](CCC(=O)O)NC(=O)[C@H](CCCCN)NC(=O)[C@@H](N)CC(=O)O)[C@@H](C)CC)[C@@H](C)CC)[C@@H](C)CC)C(C)C)C(=O)N[C@@H](Cc1ccc(O)cc1)C(=O)N[C@@H](CCC(=O)O)C(=O)N[C@@H](Cc1ccccc1)C(=O)N[C@@H](CCSC)C(=O)N[C@@H](CCCCN)C(=O)N[C@@H](CCCCN)C(N)=O [SIH-3] (H-DKEWILQKIYEIMRLLDEL[dA]H[Aib]EASMRVSDLIYEFMKK-NH2)
[1]
  IC50: 125 to 250 nM
[2]
  solubility thermodynamic at 2 h: 95 µM (≈ 444 µg/mL)
